According to publication PMC10361207, “Cannabinoid and Opioid Receptor Affinity and Modulation of Cancer-Related Signaling Pathways of Machaeriols and Machaeridiols from Machaerium Pers” (Molecules, 2023):
Values after ≈ are worked out from the molar mass of the structure shown.

Tests used:
AP-1 = test: Luciferase reporter assay, AP-1, T98G; type: cell-based; conditions: T98G cells; inducer PMA
Method: (§1) Hela cells (or T98G cells) from ATCC were plated in white opaque 384-well plates at a density of 4300 cells/well in 30 µL of growth medium (DMEM with 10% FBS and 1% Pen/Strep). The next day, the medium was aspirated and replaced with DMEM containing 1% FBS. The cells were transfected with respective plasmids using X-tremeGENE HP DNA transfection reagent (Roche). After 24 h of transfection, the test agents were added to the transfected cells, followed 30 min later by an inducing agent: interleukin 6 (IL-6) for Stat3, TGF-β for Smad, m-wnt3a for Wnt and PMA for AP-1, NF-κB, E2F, Myc, ETS, Notch and Hedgehog. No inducer was added for FoXO and pTK. After 4 h or 6 h of induction, the cells were lysed via the addition of the One-Glo luciferase assay system (Promega; Madison, WI). The light output was detected in a GloMax®-Multi+ Detection System with Instinct® Software (Promega E 8051). This luciferase assay determines if the test agent is able to inhibit the activation of cancer-related signaling pathways. In the case of FoxO, the enhanced luciferase activity via the test agent was assessed.

[1] = Cytotoxicity, Neutral Red, Vero; type: cell-based; conditions: monkey, Vero kidney fibroblasts, Na = not active up to 50 µg/mL
Method: (§2) In vitro cytotoxic activity was determined against five human cancer cell lines—malignant melanoma (SK-MEL), epidermal carcinoma oral (KB), ductal carcinoma breast (BT-549), ovary carcinoma (SKOV-3) and cervical (HeLa) cancer cells—and two non-cancerous kidney cell lines (LLC-PK1 and Vero). All cell lines were obtained from the American Type Culture Collection (ATCC, Rockville, MD, USA). Each assay was performed in 96-well tissue culture-treated microplates. The cells were seeded at a density of 25,000 cells/well and incubated for 24 h. Samples at different concentrations were added, and the cells were incubated again for 48 h. At the end of the incubation, the cell viability was determined using Neutral Red dye according to a modification of the procedure used by Borenfreund et al.. IC50 values were determined from dose–response curves of the percent growth inhibition against test concentrations. Doxorubicin was used as a positive control, while DMSO was used as the negative (vehicle) control.

Myc = test: Luciferase reporter assay, Myc, T98G; type: cell-based; conditions: Homo sapiens; T98G cells; inducer PMA
Method: as §1

E2F = test: Luciferase reporter assay, E2F, T98G; type: cell-based; conditions: Homo sapiens; T98G cells; inducer PMA
Method: as §1

ETS = test: Luciferase reporter assay, ETS, T98G; type: cell-based; conditions: Homo sapiens; T98G cells; inducer PMA
Method: as §1

[2] = Cytotoxicity, Neutral Red, LLC-PK1; type: cell-based; conditions: pig, LLC-PK1 kidney epithelial cells, Na = not active up to 50 µg/mL
Method: as §2

Notch = test: Luciferase reporter assay, Notch, T98G; type: cell-based; conditions: Homo sapiens; T98G cells; inducer PMA
Method: as §1

Wnt = test: Luciferase reporter assay, Wnt, T98G; type: cell-based; conditions: T98G cells, inducer m-wnt3a, dash: not inhibited by more than 40% at 50 µmol/L
Method: as §1

NF-κB = test: Luciferase reporter assay, NF-κB, T98G; type: cell-based; conditions: Homo sapiens; T98G cells; inducer PMA
Method: as §1

FoxO = test: Luciferase reporter assay, FoxO, T98G; type: cell-based; conditions: Homo sapiens; T98G cells; no inducer; dash: no activity detected; read-out: IC50, FoxO (None)
Method: as §1

Stat3 = test: Luciferase reporter assay, Stat3, T98G; type: cell-based; conditions: Homo sapiens; T98G cells; inducer IL6
Method: as §1

[3] = Cytotoxicity, Neutral Red, HeLa; type: cell-based; conditions: human, HeLa cervical cancer cells, Na = not active up to 50 µg/mL
Method: as §2

[4] = Cytotoxicity, summary over the cell line panel; type: cell-based; conditions: human, HeLa, SK-MEL, KB and BT-549 cells; read-out: Cytotoxicity IC50 values, span over cell lines
Method: as §2

Hedgehog = test: Luciferase reporter assay, Hedgehog, T98G; type: cell-based; conditions: Homo sapiens; T98G cells; inducer PMA
Method: as §1

κ opioid receptor = target: T1, κ opioid receptor (Homo sapiens, UniProt P41145); type: binding; conditions: 10 μM; [3H]-U-69,593
T1 construct: host or cells: HEK293, stably transfected; membranes
T1 sequence (P41145 whole entry): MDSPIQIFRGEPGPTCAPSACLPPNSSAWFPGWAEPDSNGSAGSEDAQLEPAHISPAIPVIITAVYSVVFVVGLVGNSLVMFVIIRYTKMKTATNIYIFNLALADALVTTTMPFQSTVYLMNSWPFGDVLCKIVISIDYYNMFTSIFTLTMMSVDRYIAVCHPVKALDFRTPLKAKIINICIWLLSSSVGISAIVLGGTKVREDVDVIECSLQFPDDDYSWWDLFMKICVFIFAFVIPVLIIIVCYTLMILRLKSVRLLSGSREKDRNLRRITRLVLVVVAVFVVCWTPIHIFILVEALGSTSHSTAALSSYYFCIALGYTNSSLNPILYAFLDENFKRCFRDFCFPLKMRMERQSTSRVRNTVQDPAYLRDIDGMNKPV
Method: HEK293 cells stably transfected with δ, κ and μ opioid subtypes were a generous gift from Roth Laboratories (University of North Carolina at Chapel Hill, N.C., USA). CB and opioid cells were maintained as previously described.
Membranes were purified by first washing the cells with cold PBS and scraping the cells into cold 50 mM Tris-HCl, pH 7.4 buffer, which was centrifuged at 5200× g for 10 min at 4 °C; next, the supernatant was discarded, and the pellet was washed with more Tris-HCl buffer, homogenized via a Sonic Dismembrator (Fisher Scientific, Pittsburgh, PA, USA) and then centrifuged at 24,000× g for 40 min at 4 °C. […] The total membrane protein concentration was measured using a Pierce BCA Protein Assay Kit (Thermo Scientific, Rockford, IL, USA) as per the manufacturer’s protocol.
Cannabinoid and opioid competitive radioligand binding assays were performed as previously described. […] Percent displacements were evaluated for all the cannabinoid and opioid subtypes with a triplicate of a fixed concentration (10 µg/mL for extracts and fractions and 10 μM for purified compounds). […] The percent displacement was calculated to represent the ability of the samples to displace the radioligand binding for a given cannabinoid or opioid receptor subtype.
The percent displacement was calculated as follows: 100−binding of compound−nonspecific binding/specific binding×100 […]

[5] = tested on: SK-MEL, KB, BT-549, SK-OV-3, HeLa, LLC-PK1 and Vero cells; test: Cytotoxicity, summary over the cell line panel; type: cell-based; conditions: highest tested concentration of 50 µg/mL; most of the cells
Method: as §2

SMILES	IC50 (AP-1) [µM]	IC50 at 48 h [1] [µg/mL]	IC50 (Myc) [µM]	IC50 (E2F) [µM]	IC50 (ETS) [µM]	IC50 at 48 h [2] [µg/mL]	IC50 (Notch) [µM]	IC50 (Wnt; Homo sapiens) [µM]	IC50, Wnt (m-wnt3a) (Wnt)	IC50 (NF-κB) [µM]	IC50 (FoxO) [µM]	IC50 (Stat3) [µM]	IC50 at 48 h [3] [µg/mL]	IC50 at 48 h [4] [µg/mL]	IC50 (Hedgehog) [µM]	Percent displacement, ĸ (κ opioid receptor) [%]	Cytotoxicity (in words) [5]
C=C(C)[C@H]1CC[C@H](C)C[C@@H]1c1c(O)cc(/C=C/c2ccccc2O)cc1O [compound 6, machaeridiol B]	4.2	47 (≈ 129 µM)	2	0.7	5.9	37 (≈ 102 µM)	4.6	> 50	inactive	4	> 50	1.4	37 (≈ 102 µM)	32 to 38 (≈ 87.8 to 104 µM)	5	–	–
C[C@H]1CC[C@H]2[C@H](C1)c1c(O)cc(/C=C/c3ccccc3O)cc1OC2(C)C [compound 3, machaeriol C]	–	–	–	–	–	–	–	–	–	–	–	–	–	–	–	6.4	inactive
